Broadly, the IC50 is the concentration that inhibits the measured activity by half. In general, half-life refers to the time needed for the level to fall by half in the phase considered.

Where only a bound is given, the exact number is not on record here.

In the first data set the test system is Mus musculus. In words: Antiinflammatory activity against imiquimod-induced psoriasis BALB/c mouse model assessed as reduction in psoriasis symptoms at 0.4 mg/kg, po qd for 7 days. The settings on record: 168 h, read-out: INH.
For `CN(Cc1cnc2nc(N)nc(N)c2n1)c1ccc(C(=O)N[C@@H](CCC(=O)O)C(=O)O)cc1` [METHOTREXATE], the inhibition in vivo at 0.4 mg/kg came out at 53.1%.

Another data set concerns the target T1, Nuclear receptor ROR-gamma (Homo sapiens, UniProt P51449).
T1 sequence (P51449 whole entry): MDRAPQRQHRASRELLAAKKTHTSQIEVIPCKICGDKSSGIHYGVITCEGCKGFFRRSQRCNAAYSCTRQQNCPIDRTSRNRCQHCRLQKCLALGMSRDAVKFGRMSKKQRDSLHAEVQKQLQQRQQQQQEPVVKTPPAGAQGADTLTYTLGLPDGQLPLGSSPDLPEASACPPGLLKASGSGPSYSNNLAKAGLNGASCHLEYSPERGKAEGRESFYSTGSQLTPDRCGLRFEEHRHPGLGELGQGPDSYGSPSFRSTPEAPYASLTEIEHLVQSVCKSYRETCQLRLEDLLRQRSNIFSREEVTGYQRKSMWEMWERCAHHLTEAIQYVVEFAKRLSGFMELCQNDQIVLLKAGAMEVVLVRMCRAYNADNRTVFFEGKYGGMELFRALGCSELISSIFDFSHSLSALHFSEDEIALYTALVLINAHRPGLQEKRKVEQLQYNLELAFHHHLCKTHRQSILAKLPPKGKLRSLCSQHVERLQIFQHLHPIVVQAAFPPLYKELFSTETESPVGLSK
Details: not given
`CC(=O)Nc1ccc(Nc2nc(Oc3c(Cl)cccc3C(F)(F)F)nc(-c3ccc(C(F)(F)F)cc3)n2)cc1` yielded an IC50 of 0.032 µM.

On to `Cc1cccc(-c2nc(Nc3ccc(C(=O)O)cc3)nc(Oc3c(Cl)cccc3Cl)n2)c1`, for which 0.241 µM corresponded to half-maximal inhibition (IC50).

For the compound `CC(C)(C)c1ccc(-c2nc(Nc3ccc(C(=O)O)cc3)nc(Oc3c(Cl)cccc3Cl)n2)cc1`, inhibition was half-maximal at 0.0995 µM (IC50).

Compound `CNC(=O)c1ccc(Nc2nc(Oc3c(Cl)cccc3Cl)nc(-c3ccc(OC)cc3)n2)cc1` showed an IC50 of 0.0129 µM.

Compound `CNC(=O)c1ccc(Nc2nc(Oc3c(Cl)cccc3C(F)(F)F)nc(-c3ccc(OC)cc3)n2)cc1` registered a half-inhibitory concentration (IC50) of 0.0167 µM.

`O=C(O)c1ccc(Nc2nc(Oc3c(Cl)cccc3Cl)nc(C3CCCC3)n2)cc1`: the IC50 amounted to 3.42 µM.

`COc1ccc(-c2nc(Nc3cccc(C(=O)O)c3)nc(Oc3c(Cl)cccc3Cl)n2)cc1` came in with an IC50 of 0.091 µM.

The compound `O=C(O)c1ccc(Nc2nc(Oc3c(Cl)cccc3Cl)nc(-c3ccc(F)cc3)n2)cc1` displayed a concentration for half-maximal inhibition (IC50) of 0.152 µM.

For `Cc1ccc(-c2nc(Nc3ccc(C(=O)O)cc3)nc(Oc3c(Cl)cccc3Cl)n2)cc1`, half-maximal inhibition (IC50) was put at 0.0617 µM.

Consider `CNS(=O)(=O)c1ccc(Nc2nc(Oc3c(Cl)cccc3Cl)nc(-c3ccc(OC)cc3)n2)cc1`, for which it took 0.0325 µM to reach half-maximal inhibition (IC50).

`COc1ccc(-c2nc(Nc3ccc(C(N)=O)cc3)nc(Oc3c(Cl)cccc3Cl)n2)cc1` displayed a half-maximal inhibitory concentration (IC50) of 0.0133 µM.

`COc1ccc(-c2nc(Nc3ccc(C(=O)O)c(O)c3)nc(Oc3c(Cl)cccc3Cl)n2)cc1` displayed an IC50 of 0.083 µM.

Consider `COc1ccc(-c2nc(Nc3ccc(C(C)C(=O)O)cc3)nc(Oc3c(Cl)cccc3Cl)n2)cc1` (stereo unspecified), for which the IC50 was found to be 0.0995 µM.

`CNC(=O)c1ccc(Nc2nc(Oc3c(Cl)cccc3Cl)nc(-c3ccc(C(F)(F)F)cc3)n2)cc1` yielded an IC50 of 0.0225 µM.

Compound `COc1ccc(-c2nc(NC3CCC(C(=O)O)C3)nc(Oc3c(Cl)cccc3Cl)n2)cc1` (stereo unspecified) registered an IC50 of 0.822 µM.

For `O=C(O)c1ccc(Nc2nc(Oc3c(Cl)cccc3Cl)nc(-c3ccc(C(F)(F)F)cc3)n2)cc1`, inhibition was half-maximal at 0.0686 µM (IC50).

`O=C(O)c1ccc(Nc2nc(Oc3c(Cl)cccc3Cl)nc(C3CCCCC3)n2)cc1` came in with an IC50 of 0.596 µM.

System in another data set: not listed separately
In words: Half life in mouse liver microsomes at 1 mM in presence of NADPH by HPLC-MS/MS analysis. The arrangement: dose or concentration left out as unconfirmed.
Details: not given
(In general: Liver microsomes are vesicles of endoplasmic reticulum, rich in cytochrome P450 enzymes.)
On to `CC(=O)Nc1ccc(Nc2nc(Oc3c(Cl)cccc3C(F)(F)F)nc(-c3ccc(C(F)(F)F)cc3)n2)cc1`, for which the half-life came out at 17.8 min.

As for `O=C(O)c1ccc(Nc2nc(Oc3c(Cl)cccc3Cl)nc(-c3ccc(C(F)(F)F)cc3)n2)cc1`, the half-life was more than 145 min.

The target of another data set is T1, Nuclear receptor ROR-gamma.
Details: not given
This is another data set of the same source.
`O=C(O)c1ccc(Nc2nc(Oc3c(Cl)cccc3Cl)nc(-c3ccc(C(F)(F)F)cc3)n2)cc1` returned an IC50 of 1.62 µM.
